Source: US11878972B2, “Treatment of neurological disorders” (TORQUR AG, priority 2016, dated 2024)

Tests used:
[1] = tested on: LC3-II in STHdh^Q7/Q7 and STHdh^Q111/Q111 cells; experiment: Induction of autophagy in STHdh cells (LC3-II, western blot); format: cell-based, mouse; details: striatal cells, 4 hours, presence and absence of Bafilomycin A
Method: In order to test whether Cpd. 3 and Cpd. 8 inhibit mTOR signaling and induce autophagy in neuronal cell models of HD, treatment of STHdh^Q111/Q111 and STHdh^Q7/Q7 cells was employed. […] Cells were seeded in 10 cm dishes. When cells were about 80% confluent, cells were differentiated and treated with compounds at the same time. Cells were treated with Cpd. 3 (200 nM, 400 nM, 1230 nM), Cpd. […] At the end of incubation time cells were washed with cold PBS buffer and lysed with 200 μl of RIPA buffer supplemented with 4% Complete protease inhibitor (Roche, Switzerland) and 10% PhosStop (Roche, Switzerland). After 30 min of incubation on ice, lysates were vortexed, centrifuged (20 min, 4° C., 16000 rpm) and supernatants were collected. Protein concentration was determined as described above. 30 μg of protein per sample was analyzed by western blot as described above using the following primary antibodies:
In order to detect levels of LC3-II, an autophagy marker in autophagosomes, cell treatment was performed in the presence and absence of Bafilomycin A, an inhibitor of autophagosome degradation. Thus compounds lead to accumulation of LC3-II levels when autophagy is induced. Cpd. 3 (FIG. 6C) and Cpd. […] For Cpd. […] Cpd.

[2] = tested on: 51Q-HTT-Exon1-eGFP transfected HEK cells; experiment: Filter trap assay of mutHTT aggregates; format: cell-based, human; details: 8 hours; Cpd. 3 400, 1230 nM; Cpd. 8 130, 1230 nM; INK128 100 nM; Rapamycin 400 nM
Method: HEK cells were transiently transfected with pcDNA3.1/V5-His vector from Clontech (Mountain View, USA) containing the expression sequence for Exon1 of HTT with a 19Q (no aggregation) or 51Q extension and enhanced green fluorescence protein (eGFP) tag using Attractene Transfection Reagent (Qiagen, Netherlands). 1×10^6 cells were seeded in a 6 well plate. On the next day 2 μg DNA were mixed with 95.5 μl transfection media and 4.5 μl transfection reagent. After an incubation time of 15 min the mixture was added to the cells. After 72 hours cells were harvested or fixed for analysis.
HEK cells transfected with 19Q- or 51Q-HTT-Exon1-eGFP were treated with DMSO control. 51Q-HTT-Exon I-eGFP HEK cells form aggregates. These cells were treated with Cpd. 3 (400, 1230 nM), Cpd. […] After 30 min incubation on ice, cells were homogenized (Dounce Homogenizer, Thermo Fisher, USA). 50 μg of protein solution in PBS was supplemented with 2% SDS (Roth, Germany). Samples were sucked through a nitrocellulose membrane (0.45 μm) and washed twice with PBS buffer.

Nc1cc(C(F)F)c(-c2nc(N3C4CCC3COC4)nc(N3C4CCC3COC4)n2)cn1 [Compound 3, 5-(4-(3-oxa-8-azabicyclo[3.2.1]octan-8-yl)-6-(3-oxa-8-azabicyclo[3.2.1]octan-8-yl)-1,3,5-triazin-2-yl)-4-(difluoromethyl)pyridin-2-amine]
autophagy (LC3-II levels) [1]: induced autophagy in striatal cells
mutHTT aggregates (filter trap) [2]: significant reduction of cytotoxic mutHTT aggregates
